Test results: the supplement of paper PMC4862054

Columns and labels:
Conditions in all cases: incubation time: 72 h
BT-474 [1] = assay: normalised response (% of control), CellTox Green; higher = less cell death (100 = DMSO, 0 = benzethonium chloride kill control)
How it was run: (§1)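 For each plate, 0.1 % DMSO was set to 100 and a positive kill control to 0. Breast cancer cell lines (20 µl suspension) were seeded into 384-well plates already holding compound at 5 concentrations in 10-fold steps over a 10,000-fold range chosen per compound, and incubated for 72 h. CellTox Green fluorescence at 485/520 nm was read before CellTiter-Glo luminescence, which followed 10 min at room temperature. Each value is the normalised signal at one concentration.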

BT-549 [2] = assay: as above
How it was run: as §1

CAL-120 [3] = assay: as above
How it was run: as §1

CAL-148 [4] = assay: as above
How it was run: as §1

CAL-51 [5] = assay: as above
How it was run: as §1

CAL-85-1 [6] = assay: as above
How it was run: as §1

DU-4475 [7] = assay: as above
How it was run: as §1

HCC1143 [8] = assay: as above
How it was run: as §1

HCC1599 [9] = assay: as above
How it was run: as §1

HCC1937 [10] = assay: as above
How it was run: as §1

HDQ-P1 [11] = assay: as above
How it was run: as §1

Hs578T [12] = assay: as above
How it was run: as §1

MCF-10A [13] = assay: as above
How it was run: as §1

MDA-MB-231 [14] = assay: as above
How it was run: as §1

MDA-MB-436 [15] = assay: as above
How it was run: as §1

MDA-MB-453 [16] = assay: as above
How it was run: as §1

MDA-MB-468 [17] = assay: as above
How it was run: as §1

MFM-223 [18] = assay: as above
How it was run: as §1

BT-474 [19] = assay: normalised response (% of control), CellTiter-Glo; higher = more viable cells (100 = DMSO, 0 = benzethonium chloride kill control)
How it was run: as §1

BT-549 [20] = assay: as above
How it was run: as §1

CAL-120 [21] = assay: as above
How it was run: as §1

CAL-148 [22] = assay: as above
How it was run: as §1

CAL-51 [23] = assay: as above
How it was run: as §1

CAL-85-1 [24] = assay: as above
How it was run: as §1

DU-4475 [25] = assay: as above
How it was run: as §1

HCC1143 [26] = assay: as above
How it was run: as §1

HCC1599 [27] = assay: as above
How it was run: as §1

HCC1937 [28] = assay: as above
How it was run: as §1

HDQ-P1 [29] = assay: as above
How it was run: as §1

Hs578T [30] = assay: as above
How it was run: as §1

MCF-10A [31] = assay: as above
How it was run: as §1

MDA-MB-231 [32] = assay: as above
How it was run: as §1

MDA-MB-436 [33] = assay: as above
How it was run: as §1

MDA-MB-453 [34] = assay: as above
How it was run: as §1

MDA-MB-468 [35] = assay: as above
How it was run: as §1

MFM-223 [36] = assay: as above
How it was run: as §1

SK-BR-3 = assay: as above
How it was run: as §1

| SMILES | normalised response (BT-474 [1]) [%] | normalised response (BT-549 [2]) [%] | normalised response (CAL-120 [3]) [%] | normalised response (CAL-148 [4]) [%] | normalised response (CAL-51 [5]) [%] | normalised response (CAL-85-1 [6]) [%] | normalised response (DU-4475 [7]) [%] | normalised response (HCC1143 [8]) [%] | normalised response (HCC1599 [9]) [%] | normalised response (HCC1937 [10]) [%] | normalised response (HDQ-P1 [11]) [%] | normalised response (Hs578T [12]) [%] | normalised response (MCF-10A [13]) [%] | normalised response (MDA-MB-231 [14]) [%] | normalised response (MDA-MB-436 [15]) [%] | normalised response (MDA-MB-453 [16]) [%] | normalised response (MDA-MB-468 [17]) [%] | normalised response (MFM-223 [18]) [%] | normalised response (BT-474 [19]) [%] | normalised response (BT-549 [20]) [%] | normalised response (CAL-120 [21]) [%] | normalised response (CAL-148 [22]) [%] | normalised response (CAL-51 [23]) [%] | normalised response (CAL-85-1 [24]) [%] | normalised response (DU-4475 [25]) [%] | normalised response (HCC1143 [26]) [%] | normalised response (HCC1599 [27]) [%] | normalised response (HCC1937 [28]) [%] | normalised response (HDQ-P1 [29]) [%] | normalised response (Hs578T [30]) [%] | normalised response (MCF-10A [31]) [%] | normalised response (MDA-MB-231 [32]) [%] | normalised response (MDA-MB-436 [33]) [%] | normalised response (MDA-MB-453 [34]) [%] | normalised response (MDA-MB-468 [35]) [%] | normalised response (MFM-223 [36]) [%] | normalised response (SK-BR-3) [%] |
| --- | --- | --- | --- | --- | --- | --- | --- | --- | --- | --- | --- | --- | --- | --- | --- | --- | --- | --- | --- | --- | --- | --- | --- | --- | --- | --- | --- | --- | --- | --- | --- | --- | --- | --- | --- | --- | --- |
| COc1cc2c(Oc3ccc(NC(=O)C4(C(=O)Nc5ccc(F)cc5)CC4)cc3F)ccnc2cc1OCCCN1CCOCC1 [Foretinib] (10 nM) | 86.5 | 95.3 | 91.5 | 105 | 109 | 107 | 102 | 104 | 102 | 97.2 | 76.9 | 104 | 107 | 102 | 79.1 | 84.9 | 139 | 97.2 | 102 | 105 | 102 | 105 | 119 | 100 | 103 | 99.6 | 112 | 94.7 | 96.8 | 99.2 | 99.5 | 97.7 | 104 | 107 | 104 | 103 | 104 |
| Cn1nnc2c(C(N)=O)ncn2c1=O [Temozolomide] (100 nM) | 97.8 | 101 | 99.2 | 100 | 108 | 107 | 101 | 96.3 | 89.7 | 82.5 | 81.8 | 89.4 | 89.1 | 110 | 104 | 105 | 92.8 | 102 | 95.4 | 106 | 99.7 | 98.8 | 107 | 93.6 | 96.8 | 101 | 90.9 | 88.2 | 93.2 | 103 | 103 | 101 | 98.8 | 102 | 100 | 104 | 96.5 |
| CCc1c(C(=O)C(N)=O)c2c(OCC(=O)O)cccc2n1Cc1ccccc1 [Varespladib] (100 nM) | 104 | 99.1 | 102 | 102 | 96.8 | 99.3 | 104 | 92.1 | 97 | 83.1 | 96 | 99.9 | 112 | 104 | 106 | 105 | 88.9 | 91.1 | 98 | 100 | 111 | 103 | 95.6 | 98.5 | 98.8 | 103 | 95.9 | 102 | 101 | 104 | 105 | 103 | 98.5 | 97 | 95.3 | 102 | 101 |
| O=C(O)CC[C@H]1CC[C@@](c2cc(F)ccc2F)(S(=O)(=O)c2ccc(Cl)cc2)CC1 [MK-0752] (10 nM) | 104 | 92.4 | 107 | 101 | 103 | 102 | 108 | 120 | 122 | 125 | 105 | 56.9 | 109 | 122 | 99.9 | 107 | 108 | 85.8 | 105 | 93.8 | 106 | 108 | 101 | 97.2 | 102 | 105 | 91.8 | 98.8 | 99.3 | 106 | 105 | 109 | 99.7 | 114 | 96.1 | 106 | 105 |
| COc1cc(Nc2ncc(F)c(Nc3ccc4c(n3)N(COP(=O)(O)O)C(=O)C(C)(C)O4)n2)cc(OC)c1OC [Fostamatinib] (25 nM) | 98.7 | 60.2 | 98.4 | 99.6 | 95 | 106 | 99.6 | 100 | 94.1 | 102 | 104 | 101 | 80.9 | 92.3 | 62.8 | 105 | 118 | 78.7 | 97.3 | 104 | 104 | 88.7 | 83 | 98.5 | 95.6 | 101 | 96 | 99.5 | 108 | 93.4 | 100 | 101 | 99.7 | 93.7 | 94.7 | 91.2 | 91.2 |
| C[C@@H](C(=O)O)c1ccc(-c2ccccc2)c(F)c1 [Tarenflurbil] (100 nM) | 93.2 | 98.8 | 103 | 102 | 92.8 | 101 | 98.1 | 98.1 | 99.3 | 100 | 93 | 89.7 | 61.1 | 96.1 | 72 | 100 | 101 | 103 | 101 | 97.3 | 98.3 | 90.3 | 91.1 | 95 | 101 | 94.8 | 106 | 91.2 | 95.2 | 102 | 91.7 | 97.3 | 97.9 | 101 | 96.4 | 96.2 | 91.6 |
| NC(=O)NO [Hydroxyurea] (1000 nM) | 101 | 105 | 101 | 78.8 | 78.6 | 115 | 102 | 67.2 | 99.6 | 109 | 99.4 | 101 | 108 | 111 | 101 | 96.4 | 103 | 89.5 | 92.1 | 105 | 102 | 104 | 61.3 | 110 | 99.6 | 105 | 97.1 | 97.6 | 95.2 | 101 | 99.2 | 100 | 98.5 | 109 | 102 | 105 | 103 |
| CC(C)C(=O)Nc1ccc([N+](=O)[O-])c(C(F)(F)F)c1 [Flutamide] (100 nM) | 99.8 | 94.1 | 104 | 92.5 | 111 | 89.6 | 99.3 | 68.4 | 96.9 | 57.6 | 105 | 87.2 | 50.2 | 97.2 | 82 | 104 | 124 | 95.8 | 101 | 101 | 98.5 | 100 | 113 | 95 | 104 | 103 | 111 | 94.9 | 98.5 | 98 | 96.8 | 102 | 102 | 109 | 94 | 98 | 95.9 |
| CC[C@H](CC#N)OC(=O)N[C@@H](C)c1cccc(NC(=O)Nc2ccc(-c3cnco3)c(OC)c2)c1 [AVN944] (100 nM) | 73.6 | 102 | 97.7 | 95.8 | 95 | 95.9 | 97.8 | 76.5 | 93.2 | 83 | 83.5 | 98.7 | 67.8 | 85.2 | 90.8 | 70.8 | 73.7 | 93.5 | 86.2 | 67.8 | 93.8 | 94.8 | 83.9 | 81.9 | 97.1 | 92.2 | 82.8 | 90.2 | 85.8 | 111 | 91.9 | 91.3 | 80.1 | 98.2 | 59.9 | 98.2 | 96 |
